{
  "source": "patent US20100035867A1",
  "about": "(priority 2006, published 2010)",
  "key": {"[1]": {"molecular_target": "T1, guanylyl cyclase type A (GC-A) (Rattus norvegicus, UniProt P18910)", "T1 sequence (P18910 29-1057)": "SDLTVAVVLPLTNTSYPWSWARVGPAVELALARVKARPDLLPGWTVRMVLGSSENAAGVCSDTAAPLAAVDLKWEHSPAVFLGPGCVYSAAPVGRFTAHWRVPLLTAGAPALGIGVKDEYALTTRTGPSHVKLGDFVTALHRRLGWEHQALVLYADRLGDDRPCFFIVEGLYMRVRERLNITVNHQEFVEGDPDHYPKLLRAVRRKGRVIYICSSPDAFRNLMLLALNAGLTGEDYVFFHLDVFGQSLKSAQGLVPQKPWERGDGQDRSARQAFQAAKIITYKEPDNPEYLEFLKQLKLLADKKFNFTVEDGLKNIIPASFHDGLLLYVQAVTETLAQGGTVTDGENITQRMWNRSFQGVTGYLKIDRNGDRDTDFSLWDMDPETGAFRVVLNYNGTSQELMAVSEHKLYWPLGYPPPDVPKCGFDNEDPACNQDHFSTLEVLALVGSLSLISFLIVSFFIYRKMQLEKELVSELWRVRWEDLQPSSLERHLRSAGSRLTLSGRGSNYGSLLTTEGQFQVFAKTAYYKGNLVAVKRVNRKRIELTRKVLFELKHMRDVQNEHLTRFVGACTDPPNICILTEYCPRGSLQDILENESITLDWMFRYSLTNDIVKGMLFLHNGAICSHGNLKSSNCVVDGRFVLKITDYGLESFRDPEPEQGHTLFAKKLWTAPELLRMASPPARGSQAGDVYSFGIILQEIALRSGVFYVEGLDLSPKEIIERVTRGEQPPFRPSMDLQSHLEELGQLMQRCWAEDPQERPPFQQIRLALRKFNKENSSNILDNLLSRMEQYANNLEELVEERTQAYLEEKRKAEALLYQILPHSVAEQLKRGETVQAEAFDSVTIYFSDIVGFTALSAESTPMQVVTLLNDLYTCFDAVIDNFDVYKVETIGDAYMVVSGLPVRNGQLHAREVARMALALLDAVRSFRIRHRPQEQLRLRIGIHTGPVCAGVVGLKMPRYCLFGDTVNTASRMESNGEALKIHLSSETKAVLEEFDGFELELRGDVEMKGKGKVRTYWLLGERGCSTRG", "test": "ANP-induced cyclic GMP accumulation in RFL-6 fibroblast cells", "settings": "RFL-6 cells, 1 μM ANP, 50 μM compound"}, "[2]": {"molecular_target": "T2, soluble guanylyl cyclase (sGC) (Rattus norvegicus, UniProt P19686+P20595)", "T2 sequence (P20595 1-619)": "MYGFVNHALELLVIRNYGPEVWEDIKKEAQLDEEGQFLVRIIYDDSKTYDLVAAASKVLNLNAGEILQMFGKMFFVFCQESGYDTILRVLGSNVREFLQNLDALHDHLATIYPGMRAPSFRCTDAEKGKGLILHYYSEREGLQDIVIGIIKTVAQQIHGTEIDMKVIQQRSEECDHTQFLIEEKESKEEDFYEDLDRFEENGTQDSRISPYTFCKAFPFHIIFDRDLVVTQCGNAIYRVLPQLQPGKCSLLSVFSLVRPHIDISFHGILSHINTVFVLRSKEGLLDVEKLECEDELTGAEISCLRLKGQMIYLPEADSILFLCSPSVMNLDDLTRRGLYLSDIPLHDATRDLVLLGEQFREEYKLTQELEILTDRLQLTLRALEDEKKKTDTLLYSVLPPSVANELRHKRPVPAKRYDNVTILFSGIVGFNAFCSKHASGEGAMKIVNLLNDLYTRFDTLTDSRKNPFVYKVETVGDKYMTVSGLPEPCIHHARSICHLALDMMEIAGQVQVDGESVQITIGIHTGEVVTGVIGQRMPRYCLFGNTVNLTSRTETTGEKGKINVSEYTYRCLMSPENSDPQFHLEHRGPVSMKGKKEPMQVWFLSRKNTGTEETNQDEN", "T2 sequence (P19686 1-690)": "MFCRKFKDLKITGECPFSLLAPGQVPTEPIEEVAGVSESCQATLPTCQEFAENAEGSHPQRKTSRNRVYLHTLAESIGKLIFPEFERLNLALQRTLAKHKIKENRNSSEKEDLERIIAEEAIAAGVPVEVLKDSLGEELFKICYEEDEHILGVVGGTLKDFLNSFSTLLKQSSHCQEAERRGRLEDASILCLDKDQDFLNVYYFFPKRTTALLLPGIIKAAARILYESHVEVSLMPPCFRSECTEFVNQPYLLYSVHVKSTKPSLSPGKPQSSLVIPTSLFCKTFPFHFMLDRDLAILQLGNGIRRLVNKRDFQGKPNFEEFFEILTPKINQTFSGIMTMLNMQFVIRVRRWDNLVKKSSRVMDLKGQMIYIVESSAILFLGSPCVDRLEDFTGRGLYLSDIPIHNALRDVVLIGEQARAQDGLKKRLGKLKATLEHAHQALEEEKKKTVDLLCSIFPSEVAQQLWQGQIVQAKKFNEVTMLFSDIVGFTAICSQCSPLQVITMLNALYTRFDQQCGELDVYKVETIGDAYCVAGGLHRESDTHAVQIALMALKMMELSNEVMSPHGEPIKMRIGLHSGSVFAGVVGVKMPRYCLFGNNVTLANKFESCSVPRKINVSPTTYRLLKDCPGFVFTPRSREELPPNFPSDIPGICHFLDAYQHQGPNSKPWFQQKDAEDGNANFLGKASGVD", "test": "Nitric oxide donor-induced cyclic GMP accumulation in RFL-6 fibroblast cells", "settings": "RFL-6 cells, 10 μM benzotrifuroxan, 50 μM compound"}},
  "data": [
    {"compound": "Cn1c2c(c(=O)n(C)c1=O)C(c1cccc(Br)c1)C1=C(N2)c2ccccc2C1=O", "note": "(centres unmarked) [compound IIb]", "values": [
      {"measurement": "inhibition of cyclic GMP accumulation (FIG. 6)", "setting": "[1]", "value": "inhibition"},
      {"measurement": "inhibition of cyclic GMP accumulation (FIG. 6)", "setting": "[2]", "value": "inhibition"}
    ]}
  ]
}
